Test results: patent publication US6706663B2, “Herbicidal 3-heterocyclic substituted benzisothiazole and benzisoxazole compounds” (Wyeth, priority 2000, dated 2004)

Tested on: ORYSAT (Rice, Tebonnet)
Assay: Flooded paddy, post-transplant rice tolerance
Type: in vivo, Oryza sativa, (L.) Tebonnet
Settings: in vivo
Method: Results of herbicide evaluation are expressed on a rating scale (0-9). The scale is based upon a visual observation of plant stand, vigor, malformation, size, chlorosis and overall plant appearance as compared with a control.
The tolerance of transplanted rice to post-transplanted herbicide application is determined as follows: two ten-day-old rice seedlings (cv. Tebonnet) are transplanted into silt loam soil in 32 oz. plastic containers with a diameter of 10.5 cm and no drainage holes. After transplanting, the containers are flooded and the water level is maintained at 1.5 to 3 cm above the soil surface. […] The treated containers are placed on greenhouse benches, watered such that the water level is maintained as stated above, and cared for in accordance with conventional greenhouse procedures.

Compound: Cn1c(C(F)(F)F)cc(=O)n(-c2ccc3snc(-c4cccnc4)c3c2)c1=O [Example 11]
- herbicidal rating, ORYSAT (rice tolerance): 0.0

Compound: Cn1c(C(F)(F)F)cc(=O)n(-c2ccc3c(c2)C(c2cccc[n+]2[O-])=NS3(=O)=O)c1=O [Example 15]
- herbicidal rating, ORYSAT (rice tolerance): 0.0
